Test results as given in patent US12440550B2 (priority 2015, dated 2025).

The molecules below were run on Calu-3 cells.
Assay type: cell-based, human

Q: How did the “increase in transduction efficiency with respect to virus formulated in saline (factor)” value (“increase in transduction efficiency” below) turn out when `OC[C@@H](O)[C@@H](O)[C@H](O)[C@H](O)CO` [mannitol] was run?
A: 1.61

Q: Which “increase in transduction efficiency” value does the source give for `OC[C@H]1O[C@@](CO)(O[C@H]2O[C@H](CO)[C@@H](O)[C@H](O)[C@H]2O)[C@@H](O[C@H]2O[C@H](CO)[C@@H](O)[C@H](O)[C@H]2O)[C@@H]1O` [melezitose] here?
A: 1.51

Q: Which “increase in transduction efficiency” value does the source give for `CCCCCCCCCCCCO[C@@H]1O[C@H](CO)[C@@H](O[C@H]2O[C@H](CO)[C@@H](O)[C@H](O)[C@H]2O)[C@H](O)[C@H]1O` [nDMPS, N-dodecyl-β-D-maltopyranoside, reference compound] here?
A: second most efficacious formulation

Q: For `OC[C@H]1O[C@H](OC[C@H]2O[C@H](O[C@]3(CO)O[C@H](CO)[C@@H](O)[C@@H]3O)[C@H](O)[C@@H](O)[C@@H]2O)[C@H](O)[C@@H](O)[C@H]1O` [raffinose], which “increase in transduction efficiency” value is on record?
A: did not significantly enhance transduction

Q: How did the “increase in transduction efficiency” value turn out when `OC[C@@H](O)[C@@H](O)[C@H](O)[C@@H](O)CO` [sorbitol] was run?
A: did not significantly enhance transduction

Q: `OC[C@H]1O[C@@](CO)(O[C@H]2O[C@H](CO)[C@@H](O)[C@H](O)[C@H]2O)[C@@H](O)[C@@H]1O` [sucrose] was tested. Which “increase in transduction efficiency” value did it give?
A: 1.96

System: Calu-3 cells
Remark: another data set of the same source

Q: Which cell lysis does the source give for `CCCCCCCCCCCCO[C@@H]1O[C@H](CO)[C@@H](O[C@H]2O[C@H](CO)[C@@H](O)[C@H](O)[C@H]2O)[C@H](O)[C@H]1O` [nDMPS, N-dodecyl-β-D-maltopyranoside, reference compound] here?
A: > 80%
